According to ChEMBL document CHEMBL1201862, “PubChem BioAssay data set” (2004):
Active and inactive are the calls of the source.

Columns and labels:
[1] = target: Mitogen-activated protein kinase 10 (Homo sapiens, UniProt P53779); experiment: Dose response biochemical screening assay for inhibitors of c-Jun N-Terminal Kinase 3 (JNK3). [Related pubchem assays: 746 ]
[2] = target: T1, Oxysterols receptor LXR-beta (Homo sapiens, UniProt P55055); format: functional, cell-based;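 note: Cell-based luminescence dose-response assay of agonist activity at LXR, run as a confirmatory counterscreen to a daf-12 agonist screen; HEK293 cells with Gal4-LXR fusion and GAL4-driven luciferase reporter; agonist potency from rising luciferase signal of a Gal4-LXR reporter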
T1 sequence (P55055 whole entry): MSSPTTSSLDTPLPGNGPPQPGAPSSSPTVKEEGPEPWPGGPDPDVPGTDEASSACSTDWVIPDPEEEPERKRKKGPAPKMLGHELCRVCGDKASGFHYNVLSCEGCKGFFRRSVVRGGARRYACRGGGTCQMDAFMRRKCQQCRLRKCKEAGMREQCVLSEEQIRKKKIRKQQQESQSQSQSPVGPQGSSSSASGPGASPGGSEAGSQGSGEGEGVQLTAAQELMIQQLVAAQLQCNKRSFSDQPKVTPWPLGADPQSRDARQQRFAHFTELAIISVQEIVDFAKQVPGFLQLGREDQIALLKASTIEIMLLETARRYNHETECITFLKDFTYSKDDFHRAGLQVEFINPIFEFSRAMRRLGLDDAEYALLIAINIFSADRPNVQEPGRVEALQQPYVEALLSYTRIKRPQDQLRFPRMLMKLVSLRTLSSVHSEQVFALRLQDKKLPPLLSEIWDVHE

[3] = target: RNA-editing ligase 1, mitochondrial (Trypanosoma brucei brucei, UniProt P86926); experiment: inhibition of trypanosome RNA editing ligase – biochemical, fluorescence, Trypanosoma brucei, dose response (AID 1117295); format: functional
Genome polyprotein = Genome polyprotein (Hepatitis C virus, UniProt Q2Q167); experiment: disruption of hepatitis C core self-association – biochemical, TR-FRET, dose response (AID 2159); parameters: species or system Hepacivirus hominis;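 note: blocks dimerization of HCV core protein measured by TR-FRET between tagged core106 pairs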
Kallikrein-7 = Kallikrein-7 (Homo sapiens, UniProt P49862); experiment: Fluorescence Intensity-based biochemical primary high throughput dose response assay to identify activators of kallikrein-7 (K7) zymogen.
Protein skinhead-1 = target: T2, Protein skinhead-1 (Caenorhabditis elegans, UniProt P34707); format: functional
T2 sequence (P34707 whole entry): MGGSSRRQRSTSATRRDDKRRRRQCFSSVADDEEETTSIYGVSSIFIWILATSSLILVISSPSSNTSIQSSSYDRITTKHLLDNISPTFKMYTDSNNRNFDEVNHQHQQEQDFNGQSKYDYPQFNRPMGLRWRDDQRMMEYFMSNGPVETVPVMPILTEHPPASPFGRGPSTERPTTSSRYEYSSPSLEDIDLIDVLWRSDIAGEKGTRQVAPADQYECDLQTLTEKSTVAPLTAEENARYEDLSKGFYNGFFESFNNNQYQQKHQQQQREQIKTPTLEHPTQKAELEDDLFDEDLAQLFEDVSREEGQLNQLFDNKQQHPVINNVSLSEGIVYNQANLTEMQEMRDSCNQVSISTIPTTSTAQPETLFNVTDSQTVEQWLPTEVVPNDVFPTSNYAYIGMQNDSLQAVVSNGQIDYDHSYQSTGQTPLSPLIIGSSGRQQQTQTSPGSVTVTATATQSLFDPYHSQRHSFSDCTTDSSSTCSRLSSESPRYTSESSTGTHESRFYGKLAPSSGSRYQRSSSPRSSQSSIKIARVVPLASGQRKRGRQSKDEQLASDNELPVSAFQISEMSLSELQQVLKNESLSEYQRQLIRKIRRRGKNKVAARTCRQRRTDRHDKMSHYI

[4] = reduced cellular PGC1a acetyl-lysine signal – cell-based, cherry-picked samples, dose response (AID 720514); format: functional;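 note: potency may reflect raised or lowered acetylation signal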
[5] = target: Long-chain-fatty-acid--AMP ligase FadD28 (Mycobacterium tuberculosis, UniProt P9WQ59); experiment: Fluorescence polarization aasay to screen for inhibitors that compete for the binding of FadD28 to a bisubstrate Measured in Biochemical System Using Plate Reader - 2147-01_Inhibitor_Dose_CherryPick_Activity.; format: functional, Mycobacterium tuberculosis H37Rv
[6] = Luminescence Cell-Based Dose Confirmation HTS to Identify Inhibitors of Platelet Dense Granule Release. [Related pubchem assays: 1663 (Primary HTS), 1678 (Summary of Project)]; format: functional
[7] = target: Luciferin 4-monooxygenase (Photinus pyralis, UniProt P08659); experiment: inhibition of purified Photinus pyralis luciferase – biochemical, luminescence, dose response (AID 1891)
[8] = target: T3, Mannose-6-phosphate isomerase (Homo sapiens, UniProt P34949); experiment: MPI inhibition at elevated mannose 6-phosphate – biochemical, fluorescence intensity, high mannose 6-phosphate, primary screen (AID 1220)
T3 sequence (P34949 whole entry): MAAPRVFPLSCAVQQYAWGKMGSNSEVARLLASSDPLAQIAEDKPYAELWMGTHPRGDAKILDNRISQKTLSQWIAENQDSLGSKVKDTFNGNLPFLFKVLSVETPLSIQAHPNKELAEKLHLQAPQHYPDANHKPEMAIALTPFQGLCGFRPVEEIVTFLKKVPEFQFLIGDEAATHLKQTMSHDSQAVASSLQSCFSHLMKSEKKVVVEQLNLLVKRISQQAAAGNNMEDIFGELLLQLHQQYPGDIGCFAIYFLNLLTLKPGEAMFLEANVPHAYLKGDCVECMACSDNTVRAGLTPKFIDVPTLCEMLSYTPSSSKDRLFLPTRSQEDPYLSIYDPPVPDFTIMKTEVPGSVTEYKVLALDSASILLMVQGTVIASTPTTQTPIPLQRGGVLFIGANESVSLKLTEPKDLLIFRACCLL

[9] = OVCAR-3 cell viability loss – plate reader, dry powder samples, PAX8 inhibitor project, dose response (AID 743044); format: functional, cell-based
[10] = A549 cell cytotoxicity, dose response, cytotoxicity control, plate reader, cherry-pick, antagonist series (AID 743412); format: functional, cell-based
[11] = blockade of melanocortin 4 receptor signaling – cell-based, plate reader, cherry pick, counter-screen for LGR2 antagonist project, dose response (AID 743444); format: functional;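 note: transfected HEK 293 cells stimulated with alpha-MSH peptide; potency of inhibitors of the alpha-MSH evoked signal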
[12] = toxicity toward immortalized ovarian surface epithelium – cell-based, plate reader, dry powder samples, cytotoxicity control for PAX8 inhibitor project, dose response (AID 743045); format: functional
[13] = IGROV1 cell killing – plate reader, dry powder samples, PAX8 inhibitor project, dose response (AID 743043); format: functional, cell-based; conditions: IGROV-1
[14] = blockers of bursicon-stimulated LGR2 cAMP reporter – cell-based, HEK293, CRE-luciferase reporter, cherry pick, set 2, dose response (AID 743343); format: functional;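 note: transfected cells were stimulated with diluted bursicon conditioned medium after compound addition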
Paired box protein Pax-8 = Paired box protein Pax-8 (Homo sapiens, UniProt Q06710); experiment: PAX8 transcriptional activity inhibition in RMG-I – RMG-I cells, luciferase, cherry-pick, dose response (AID 687027); format: functional, cell-based;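 note: luciferase reporter driven by Pax8 target thyroperoxidase promoter measured by SteadyGlo luminescence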
[15] = general cell-killing toxicity readout – plate reader, dry powder samples, cytotoxicity control for PAX8 inhibitor project, dose response (AID 743021); format: functional, cell-based
[16] = HIV-1 AD8 envelope cell-cell fusion blockers – cherry-pick, dose response (AID 652062); format: functional, cell-based;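 note: luciferase signal from cell-cell fusion driven by HIV-1 clade B AD8 Env; potency is for inhibitors of fusion seen as a drop in luminescence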
[17] = OVCAR8 cell viability loss – plate reader, dry powder samples, PAX8 project, dose response (AID 743197); format: functional, cell-based; conditions: OVCAR-8
[18] = viability loss in HEK293 cells – cell-based, plate reader, cherry-picked samples, cytotoxicity control, dose response (AID 743446); format: functional
[19] = toxicity to human HepG2 hepatoma cells – cell-based, plate reader, dry powder samples, cytotoxicity control, dose response (AID 1159569); format: functional;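 note: inhibitor potency with signal falling toward the positive control level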
[20] = growth inhibition of yeast DHODH-expressing 3D7 parasites – SYBR Green, dry powder samples, dose response (AID 1159570); format: functional, cell-based;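 note: parasite growth measured after 72 hours of compound exposure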
[21] = growth inhibition of PfATP4-mutant resistant parasites – NITD609-resistant line, SYBR Green, dry powder, dose response (AID 1159571); format: functional, cell-based;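 note: parasites synchronized at ring stage by sorbitol before testing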
[22] = P. falciparum Dd2 growth inhibitors, dose response, SYBR Green, cherry-picked samples (AID 1159567); format: functional, cell-based
[23] = toxicity to human hepatoma HepG2 cells – cell-based, cherry-picked samples, cytotoxicity control, dose response (AID 1159577); format: functional
[24] = Dd2 malaria parasite growth inhibition potency – SYBR Green, dry powder samples, dose response (AID 1159566); format: functional, cell-based;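 note: potency for growth inhibition with lower SYBR green DNA signal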
[25] = toxicity toward HepG2 liver cells – cell-based, plate reader, cherry-pick, antagonist series, cytotoxicity control, dose response (AID 743416); format: functional
[26] = A2780 cell killing – plate reader, dry powder samples, cytotoxicity control, dose response (AID 743046); format: functional, cell-based
[27] = rise of 2N DNA cells, HeLa – IC50, dose response (AID 1117349); format: functional, cell-based
[28] = rise of 4N DNA cells, HeLa – IC50, dose response (AID 1117351); format: functional, cell-based
Cytochrome P450 2D6 = Cytochrome P450 2D6 (Homo sapiens, UniProt P10635);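 note: CYP2D6 member of a cytochrome P450 panel assay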
Chain of Cytochrome P450 2D6 (P10635 whole entry): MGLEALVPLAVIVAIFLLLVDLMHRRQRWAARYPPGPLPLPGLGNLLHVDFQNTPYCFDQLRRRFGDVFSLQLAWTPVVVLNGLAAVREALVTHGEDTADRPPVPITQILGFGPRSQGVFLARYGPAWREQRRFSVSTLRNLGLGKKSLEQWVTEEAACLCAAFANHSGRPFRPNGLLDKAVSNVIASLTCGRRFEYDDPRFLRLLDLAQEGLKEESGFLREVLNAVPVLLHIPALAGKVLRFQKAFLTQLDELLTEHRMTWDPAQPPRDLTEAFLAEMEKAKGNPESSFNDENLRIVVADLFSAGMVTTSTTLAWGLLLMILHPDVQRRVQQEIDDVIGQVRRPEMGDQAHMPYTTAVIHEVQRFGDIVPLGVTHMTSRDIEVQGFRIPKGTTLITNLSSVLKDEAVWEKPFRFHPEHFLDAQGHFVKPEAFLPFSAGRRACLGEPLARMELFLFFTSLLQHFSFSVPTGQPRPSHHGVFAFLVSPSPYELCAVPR

Chain of Paired box protein Pax-8 (Q06710 whole entry): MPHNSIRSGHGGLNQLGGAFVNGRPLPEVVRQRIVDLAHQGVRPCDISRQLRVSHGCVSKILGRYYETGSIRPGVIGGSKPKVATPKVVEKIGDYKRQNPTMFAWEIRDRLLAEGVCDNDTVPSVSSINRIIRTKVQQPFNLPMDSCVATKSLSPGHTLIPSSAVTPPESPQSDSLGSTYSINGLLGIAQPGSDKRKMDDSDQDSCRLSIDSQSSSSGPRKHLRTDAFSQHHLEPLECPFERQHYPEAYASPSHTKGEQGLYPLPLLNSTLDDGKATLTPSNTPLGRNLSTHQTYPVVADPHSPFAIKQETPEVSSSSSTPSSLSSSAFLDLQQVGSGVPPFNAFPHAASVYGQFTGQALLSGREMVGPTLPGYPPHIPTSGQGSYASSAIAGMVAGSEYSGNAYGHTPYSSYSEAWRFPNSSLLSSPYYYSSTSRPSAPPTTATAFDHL
Chain of Mitogen-activated protein kinase 10 (P53779 whole entry, the tested form may be a part): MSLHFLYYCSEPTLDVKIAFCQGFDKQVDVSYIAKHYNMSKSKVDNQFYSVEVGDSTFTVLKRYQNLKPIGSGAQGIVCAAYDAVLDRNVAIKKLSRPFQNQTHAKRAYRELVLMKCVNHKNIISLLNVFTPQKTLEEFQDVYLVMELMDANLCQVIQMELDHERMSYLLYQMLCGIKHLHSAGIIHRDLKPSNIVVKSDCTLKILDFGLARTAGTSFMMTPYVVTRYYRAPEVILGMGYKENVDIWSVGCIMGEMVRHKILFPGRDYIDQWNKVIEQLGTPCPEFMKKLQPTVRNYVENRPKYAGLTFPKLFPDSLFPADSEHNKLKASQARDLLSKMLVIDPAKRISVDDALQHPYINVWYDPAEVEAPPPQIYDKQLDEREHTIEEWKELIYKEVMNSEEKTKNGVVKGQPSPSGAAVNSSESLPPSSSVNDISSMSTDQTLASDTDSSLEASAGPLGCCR
Chain of RNA-editing ligase 1, mitochondrial (P86926 whole entry): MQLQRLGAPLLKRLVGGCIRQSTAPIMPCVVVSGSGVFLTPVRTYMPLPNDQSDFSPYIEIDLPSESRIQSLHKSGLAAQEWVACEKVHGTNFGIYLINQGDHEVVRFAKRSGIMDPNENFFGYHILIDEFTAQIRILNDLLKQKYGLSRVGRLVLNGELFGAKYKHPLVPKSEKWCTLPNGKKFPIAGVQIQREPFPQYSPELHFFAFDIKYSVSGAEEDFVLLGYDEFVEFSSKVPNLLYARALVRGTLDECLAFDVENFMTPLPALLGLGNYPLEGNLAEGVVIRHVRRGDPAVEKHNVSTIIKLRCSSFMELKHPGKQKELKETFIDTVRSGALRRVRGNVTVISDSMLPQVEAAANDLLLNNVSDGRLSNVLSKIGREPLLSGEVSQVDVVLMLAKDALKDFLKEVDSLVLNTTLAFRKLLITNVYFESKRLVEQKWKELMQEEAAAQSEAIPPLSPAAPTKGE
Chain of Long-chain-fatty-acid--AMP ligase FadD28 (P9WQ59 whole entry): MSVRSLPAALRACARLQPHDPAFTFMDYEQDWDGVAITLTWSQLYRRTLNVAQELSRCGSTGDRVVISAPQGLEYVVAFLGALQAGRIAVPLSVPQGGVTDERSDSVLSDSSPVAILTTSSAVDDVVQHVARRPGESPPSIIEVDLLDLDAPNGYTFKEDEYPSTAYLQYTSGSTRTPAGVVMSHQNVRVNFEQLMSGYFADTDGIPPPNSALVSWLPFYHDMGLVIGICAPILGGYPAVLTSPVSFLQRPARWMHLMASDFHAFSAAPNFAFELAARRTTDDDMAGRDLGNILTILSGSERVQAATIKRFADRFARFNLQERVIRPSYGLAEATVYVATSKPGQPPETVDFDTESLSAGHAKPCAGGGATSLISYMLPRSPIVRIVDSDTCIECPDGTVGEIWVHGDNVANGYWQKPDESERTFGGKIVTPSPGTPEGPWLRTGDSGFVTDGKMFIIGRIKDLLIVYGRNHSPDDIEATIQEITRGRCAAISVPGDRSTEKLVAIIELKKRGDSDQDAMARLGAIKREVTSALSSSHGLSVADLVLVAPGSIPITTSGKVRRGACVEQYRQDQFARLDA
Chain of Genome polyprotein (Q2Q167 whole entry): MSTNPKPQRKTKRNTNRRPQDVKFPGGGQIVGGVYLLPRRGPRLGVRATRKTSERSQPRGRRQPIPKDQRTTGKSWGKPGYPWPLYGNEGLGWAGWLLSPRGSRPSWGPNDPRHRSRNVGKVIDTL
Chain of Kallikrein-7 (P49862 whole entry): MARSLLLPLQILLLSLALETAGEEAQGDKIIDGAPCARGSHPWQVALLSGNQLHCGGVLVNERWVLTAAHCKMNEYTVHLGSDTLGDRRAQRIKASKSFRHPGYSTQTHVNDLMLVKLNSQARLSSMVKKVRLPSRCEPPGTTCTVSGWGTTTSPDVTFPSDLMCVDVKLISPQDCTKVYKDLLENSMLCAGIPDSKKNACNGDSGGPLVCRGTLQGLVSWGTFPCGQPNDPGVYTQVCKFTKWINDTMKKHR
Chain of Luciferin 4-monooxygenase (P08659 whole entry): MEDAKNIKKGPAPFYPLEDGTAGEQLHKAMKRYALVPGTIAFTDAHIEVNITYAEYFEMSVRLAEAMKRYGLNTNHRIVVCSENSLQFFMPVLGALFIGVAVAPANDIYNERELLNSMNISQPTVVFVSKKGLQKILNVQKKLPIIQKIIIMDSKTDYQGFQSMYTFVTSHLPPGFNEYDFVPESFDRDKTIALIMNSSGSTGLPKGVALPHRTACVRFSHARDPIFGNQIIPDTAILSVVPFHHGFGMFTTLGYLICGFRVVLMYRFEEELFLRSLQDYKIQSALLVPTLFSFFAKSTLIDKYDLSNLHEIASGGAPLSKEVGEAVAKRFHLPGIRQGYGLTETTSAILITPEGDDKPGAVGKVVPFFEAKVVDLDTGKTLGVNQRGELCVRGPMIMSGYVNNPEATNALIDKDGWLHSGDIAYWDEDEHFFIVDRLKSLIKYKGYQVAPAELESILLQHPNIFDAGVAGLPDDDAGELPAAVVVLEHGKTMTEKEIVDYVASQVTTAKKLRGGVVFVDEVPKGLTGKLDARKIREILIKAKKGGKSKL

COc1cccc(NC(=O)CCCn2c(=O)[nH]c3ccccc3c2=O)c1
IC50 [1]: 48.1 µM (not active)

O=c1c2ccccc2cnn1-c1ccc(Cl)cc1
EC50 [2]: > 67.5 µM (inactive) | EC50 (cells): > 67.5 µM (inactive)

Sc1nnc(-c2ccc(Br)cc2)n1-c1ccccc1.[Zn+2]
IC50 [3]: 20.2 µM (inactive)

CCCCC(=O)Nc1ncc(Br)s1
IC50 [1]: 54.9 µM (not active)

Sc1nncn2c1cc1oc3ccccc3c12
IC50 (Genome polyprotein): > 49.8 µM (not active)

CCC(NC(=O)Cc1c(C)c2c(cc(C)c3c(C)c(C)oc32)oc1=O)C(=O)O (stereo not given)
EC50 (Kallikrein-7): > 69.5 µM (inactive)

O=C(C=Cc1ccccc1)CC(c1ccccc1)N1CCOCC1 (stereo not given)
IC50 (Protein skinhead-1): 10.9 µM (active) | AC50 [4]: 10.7 µM (active)

C/N=c1\scc(-c2ccccc2F)n1/N=C/c1ccc(O)c(O)c1O
AC50 [5]: 32 µM (inactive) | EC50 [2]: > 67.5 µM (inactive) | EC50 [6]: 2.46 µM (active) | EC50 [7]: 1.68 µM (active) | EC50 (cells): > 67.5 µM (inactive) | IC50 [8]: 25.8 µM (active)

COc1ccccc1C#Cc1ccc([C@H]2[C@H](C#N)N(C(=O)C3CCCC3)[C@H]2CO)cc1
AC50 [9]: 8.21 µM (active) | AC50 [10]: > 52 µM (inactive) | AC50 [11]: 3.59 µM (active) | AC50 [12]: 21.8 µM (active) | AC50 [13]: 32.2 µM (active) | AC50 [14]: 9.13 µM (active) | AC50 (Paired box protein Pax-8): 4.38 µM (active) | AC50 [15]: 19.8 µM (active) | AC50 [16]: 9.51 µM (active) | AC50 [4]: 4.17 µM (active) | AC50 [17]: 10.6 µM (active) | AC50 [18]: > 52 µM (inactive)

C[C@@H]1CN([C@@H](C)CO)C(=O)c2c(c3ccccc3n2C)-c2ccccc2CO[C@@H]1CN(C)S(=O)(=O)c1ccc(C(F)(F)F)cc1
AC50 [10]: 22.3 µM (active) | AC50 [11]: 54.3 µM (active) | AC50 [13]: 58.4 µM (active) | AC50 [14]: 51.6 µM (active) | AC50 [19]: 20.9 µM (active) | AC50 (Paired box protein Pax-8): 6.8 µM (active) | AC50 [20]: 2.24 µM (active) | AC50 [21]: 2.21 µM (active) | AC50 [22]: 2.57 µM (active) | AC50 [23]: > 39 µM (inactive) | AC50 [24]: 1.63 µM (active) | AC50 [18]: 34.5 µM (active) | AC50 [25]: 21.9 µM (active)

COc1ccc(S(=O)(=O)N2CCCCN3[C@H](CO)[C@@H](c4ccc(C#CC(C)C)cc4)[C@H]3C2)cc1
AC50 [9]: 34 µM (active) | AC50 [26]: 27.1 µM (active) | AC50 (Paired box protein Pax-8): 12 µM (active) | AC50 [17]: > 70 µM (inactive)

COC(=O)c1nc(Cl)c(Cl)nc1N
IC50 [27]: 0.334 µM (active) | IC50 [28]: 0.511 µM (active)

COc1cccc(CN(C)C(=O)[C@H]2O[C@@H](n3cnc4c(=O)[nH]c(N)nc43)[C@H](O)[C@@H]2O)c1
IC50 [3]: > 96.6 µM (inactive)

O=C(C1CCC1)N1C[C@@H]2N[C@H](C1)[C@@H]2c1ccc(-c2ccccc2F)cc1
AC50 [19]: 19.5 µM (active) | AC50 [20]: 3.03 µM (active) | AC50 [21]: 3.47 µM (active) | AC50 [22]: 2.24 µM (active) | AC50 [24]: 2.5 µM (active)

CCCCc1ccc2[nH]c(NC(=O)OC)nc2c1 [PARBENDAZOLE]
AC50 (Cytochrome P450 2D6): 1.58 µM (inconclusive) | IC50 [27]: 0.0104 µM (active) | IC50 [28]: 0.0106 µM (active)
